Reference: paper PMC8245078, “Development of novel benzofuran-isatin conjugates as potential antiproliferative agents with apoptosis inducing mechanism in Colon cancer” (Journal of Enzyme Inhibition and Medicinal Chemistry, 2021)
Read-outs that look alike come from different tables or passages of the source.

What was measured:
MOLT-4 = assay type: cell-based; conditions: MOLT-4, five-dose test
EKVX = assay type: cell-based; conditions: five-dose test
NCI-H522 = assay type: cell-based; conditions: NCI-H522, five-dose test
HCC-2998 = assay type: cell-based; conditions: HCC-2998, five-dose test
HCT-116 = assay type: cell-based; conditions: Homo sapiens; HCT-116, five-dose test
HCT-15 = assay type: cell-based; conditions: HCT-15, five-dose test
SW-620 = assay type: cell-based; conditions: SW-620, five-dose test
SNB-75 = assay type: cell-based; conditions: SNB-75, five-dose test
LOX IMVI = assay type: cell-based; conditions: five-dose test
M14 = assay type: cell-based; conditions: M14, five-dose test
IGROV1 = assay type: cell-based; conditions: Homo sapiens, IGROV-1; IGROV1, five-dose test
OVCAR-8 = assay type: cell-based; conditions: OVCAR-8, five-dose test
NCI/ADR-RES = assay type: cell-based; conditions: Homo sapiens, five-dose test
786-0 = assay type: cell-based, human; conditions: 786-0, five-dose test
A498 = assay type: cell-based, human; conditions: A498, five-dose test
ACHN = assay type: cell-based; conditions: Homo sapiens, five-dose test
CAKI-1 = assay type: cell-based, human; conditions: CAKI-1, five-dose test
RXF 393 = assay type: cell-based, human; conditions: RXF 393, five-dose test
TK-10 = assay type: cell-based, human; conditions: TK-10, five-dose test
MDA-MB-231/ATCC = assay type: cell-based; conditions: five-dose test
HS 578 T = assay type: cell-based; conditions: five-dose test
Melanoma subpanel = assay type: cell-based, human
Ovarian Cancer subpanel = assay type: cell-based, human
[1] = system: Full panel of NCI cancer cell lines; assay type: cell-based
[2] = Homo sapiens, read-out: LC50 (the source's name)

For `COc1ccc2c(c1)/C(=N/NC(=O)c1oc3ccccc3c1C)C(=O)N2` [Compound 5d], the LC50 (MOLT-4; Homo sapiens) was greater than 100 µM, the TGI (MOLT-4) was greater than 100 µM and the GI50 (EKVX; Homo sapiens) was 2.94 µM. For the same molecule, the LC50 (concentration giving 50% net cell kill) (EKVX; Homo sapiens) was greater than 100 µM, the TGI (EKVX) was greater than 100 µM and the GI50 (NCI-H522; Homo sapiens) was 6.07 µM. It also gave an LC50 (concentration killing 50% of cells) (NCI-H522; Homo sapiens) greater than 100 µM, a TGI (NCI-H522) greater than 100 µM and a TGI (HCC-2998) greater than 100 µM. It also gave a CC50 (HCC-2998; [2]) greater than 100 µM, a GI50 (HCT-116) of 1.92 µM and a TGI (HCT-15) greater than 100 µM. It also gave an LC50 (HCT-15; Homo sapiens) greater than 100 µM, a CC50 (SW-620; [2]) greater than 100 µM and a TGI (SW-620) greater than 100 µM. It also gave a GI50 (SNB-75; Homo sapiens) of 1.25 µM, a CC50 (SNB-75; [2]) of 6.04 µM and a TGI (SNB-75) of 2.75 µM. It also gave a GI50 (LOX IMVI; Homo sapiens) of 3.16 µM, a CC50 (LOX IMVI; [2]) greater than 100 µM and a TGI (LOX IMVI) greater than 100 µM. For the same molecule, the CC50 (M14; [2]) was greater than 100 µM, the TGI (M14) was greater than 100 µM and the GI50 (IGROV1) was 2.1 µM. It also gave an LC50 (IGROV1) greater than 100 µM, a GI50 (OVCAR-8; Homo sapiens) of 3.22 µM and an LC50 (OVCAR-8; Homo sapiens) greater than 100 µM. The TGI (OVCAR-8) was greater than 100 µM, the GI50 (NCI/ADR-RES) was 2.47 µM and the LC50 (NCI/ADR-RES) was greater than 100 µM. The TGI (786-0) was 3.84 µM, the GI50 (786-0; Homo sapiens) was 1.99 µM and the TGI (A498) was 4.04 µM. For the same molecule, the GI50 (A498; Homo sapiens) was 1.63 µM, the GI50 (ACHN) was 1.77 µM and the TGI (CAKI-1) was 3.24 µM. The GI50 (CAKI-1; Homo sapiens) was 1.56 µM, the GI50 (RXF 393; Homo sapiens) was 1.79 µM and the TGI (RXF 393) was 3.70 µM. For the same molecule, the GI50 (TK-10; Homo sapiens) was 2.32 µM, the TGI (TK-10) was 4.02 µM and the GI50 (MDA-MB-231/ATCC; Homo sapiens) was 2.07 µM. The CC50 (MDA-MB-231/ATCC; [2]) was greater than 100 µM, the TGI (MDA-MB-231/ATCC) was 5.10 µM and the GI50 (HS 578 T; Homo sapiens) was 2.41 µM. It also gave an LC50 (HS 578 T; Homo sapiens) greater than 100 µM, a TGI (HS 578 T) of 7.72 µM and a GI50 (Melanoma subpanel; Homo sapiens, Melanoma subpanel, read-out: MG-MID (GI50 average of the subpanel)) of 3.18 µM. For the same molecule, the Selectivity index (Melanoma subpanel; full panel MID / subpanel MID, Melanoma) was 0.78, the GI50 (Ovarian Cancer subpanel; Homo sapiens, Ovarian Cancer subpanel, read-out: MG-MID (GI50 average of the subpanel)) was 2.29 µM and the Selectivity index (Ovarian Cancer subpanel; full panel MID / subpanel MID, Ovarian Cancer) was 1.09. The LC50 ([1]; Homo sapiens, all cancer cell lines examined except HOP-62, SNB-75 and SK-MEL-2) was greater than 100 µM, the GI50 ([1]; Homo sapiens, all examined cancer cell subpanels except HL60(TB), read-out: GI50 values range) was 1.25 to 6.07 µM and the GI50 ([1]; Homo sapiens, average sensitivity for all cell lines, read-out: Full panel MG-MID (GI50)) was 2.51 µM. The “selectivity index range over subpanels” value ([1]; all tested subpanels) was 0.78 to 1.30, the TGI ([1]; entire Leukaemia, Colon cancer and Prostate Cancer and the remaining examined cancer cell lines) was “more than 100 µM” and the GI50 (MDA-MB-468; Homo sapiens, MDA-MB-468) was 2.6 µM. It also gave a CC50 (MDA-MB-468; Homo sapiens, MDA-MB-468, read-out: LC50) greater than 100 µM and a TGI (MDA-MB-468; MDA-MB-468, five-dose test) of 6.52 µM.
